Where “and” joins values, the source holds several entries; their conditions need not be identical. Equal values may be shown once.
Columns and labels:
[1] = In vivo bioconcentration test OECD TG 305, carp; parameters: species or system Cyprinus carpio; settings: common carp (Cyprinus carpio), in vivo, common carp; for concentration at 7 d: day 7 (uptake); for concentration at 14 d: day 14 (uptake); for concentration at 21 d: day 21 (uptake); for concentration at 28 d: day 28 (uptake); for concentration at 35 d: day 35 (end of uptake); for concentration at 40 d: day 40 (depuration); for concentration at 44 d: day 44 (depuration)
Procedure: (§1) In vivo BCF values for MXC and BaP in carp and trout were determined in bioconcentration tests with both species in accordance to OECD TG 305 ([OECD, 2012]). The studies were approved by the State Agency for Nature, Environment and Consumer Protection (LANUV) North Rhine-Westphalia. The fish were exposed to a single concentration of both test items in a flow-through system for 35 days. No control groups were used. Dosing was performed by a solid-phase desorption system which was integrated in the fresh water supply allowing for a constant delivery of test concentrations to the fish chambers. The procedure of column generated concentrations was described in detail by [Schlechtriem et al. (2017)]. For the present study, two packed columns containing each 500 g Florisil® loaded with 200 mg of either MXC or BaP were used for each fish chamber. The uptake (exposure) phase of the study was followed by a 35 days depuration phase in uncontaminated water. The flow-through rate was maintained at 38.6 L/h for carp and 30.1 L/h for trout throughout the test. […] Additional 2-4 fish were sampled each, at the start and at the end of the exposure period, as well as at the end of the depuration period for lipid analysis. The total lipid content of the fish was measured individually by gravimetric analysis according to [Smedes (1999)].
(§2) Water samples (400 ml) were taken from the test chambers at least three times per week. Preparation for chemical analysis was performed by liquid-liquid extraction using n-hexane (10 ml) containing deuterated MXC (35 ng). The purified organic phase was subdivided into two equal parts and evaporated to dryness under a stream of nitrogen. One part of the residue was dissolved in 200 µL DCM for MXC analysis. The other part was mixed with 1 ml ACN: water (8:2, v/v) and subjected to BaP analysis. Whole fish samples were prepared for chemical analysis individually. After grinding the tissue with the addition of dry ice in a Thermomix™ 31 (Vorwerk), the finely powdered homogenate was lyophilized using an AdVantage freeze dryer (Ismatec). Aliquots of the dry samples (0.5 g) were spiked with deuterated internal standards (5 ng MXC-d6 and 0.2 ng BaP-d12) and extracted three times with acetone: DCM (1:1, v/v) (10 ml). The pooled extracts were then extracted with ultra-pure water (45 ml) and mixed with sodium chloride (5 g) to remove acetone and matrix. The organic phase was concentrated (0.5 ml) and dissolved in cyclohexane: DCM (1:1, v/v) (4.2 ml). This was subjected to gel permeation chromatography (GPC) (GILSON system equipped with pump 307, syringe pump 402, GX-271 liquid handler, 508 interface module, and Trilution® LC software; column i. d. 1.5 cm, material Bio-Beads S-X3, 200–400 mesh, Bio-Rad, flow rate 2 ml/min). Eluates containing MXC (26–31 min retention time) and BaP (32–38 min retention time) were evaporated to dryness and dissolved in hexane (1 ml) and toluol (50 µL), respectively. The collected MXC extracts were further concentrated by solid-phase extraction (SPE, Sep-Pak® Vac 12cc, 2 g, silica cartridges, Waters) using DCM: n-hexane (50:50, v/v) as eluent. Eluent and hexane were used to equilibrate and condition the column before sample loading and subsequent washing with DCM: n-hexane (30:70, v/v). The eluate containing MXC was dried down and reconstituted in toluol (0.5 ml).
(§3) MXC in the organic phase of samples from the in vitro incubations and in DCM extracts of water samples from the in vivo bioconcentration tests were analyzed by gas chromatography-mass spectrometry (GC-MS). The GC-MS system consisted of a HP5890 series II GC coupled to a HP5972 mass sensitive detector (Hewlett-Packard). Separations were performed on 5% phenyl polysilphenylene-siloxane capillary columns (BPX-5, 30 m length x 0.25 mm i. d, 0.25 µm df, SGE). […]

common carp = experiment: In vivo bioconcentration test OECD TG 305, carp; parameters: species or system Cyprinus carpio; settings: common carp; for Cf data, concentration measured in individual fish: BaP background corrected
Procedure: as §1, §2, §3

[2] = In vivo bioconcentration test OECD TG 305, trout; parameters: species or system Oncorhynchus mykiss; settings: rainbow trout (Oncorhynchus mykiss), in vivo, rainbow trout; for concentration at 7 d: day 7 (uptake); for concentration at 14 d: day 14 (uptake); for concentration at 21 d: day 21 (uptake); for concentration at 28 d: day 28 (uptake); for concentration at 40 d: day 40 (depuration)
Procedure: as §1, §2, §3

rainbow trout = experiment: In vivo bioconcentration test OECD TG 305, trout; parameters: species or system Oncorhynchus mykiss; settings: for BCFSSL lipid-normalized steady-state bioconcentration factor: 5% lipid content
Procedure: as §1, §2, §3

[3] = BaP background corrected, read-out: Cf data, concentration measured in individual fish

SMILES: COc1ccc(C(c2ccc(OC)cc2)C(Cl)(Cl)Cl)cc1 [MXC, methoxychlor]
- concentration at 7 d [1, 3]: 12.8 ng/g
- concentration at 7 d ([1]; read-out: Mean Cf): 12.2 ng/g
- concentration at 14 d [1, 3]: 11.4 ng/g
- concentration at 14 d ([1]; read-out: Mean Cf): 9.88 ng/g
- concentration at 21 d [1, 3]: 9.16 ng/g
- concentration at 21 d ([1]; read-out: Mean Cf): 8.56 ng/g
- concentration at 28 d [1, 3]: 7.02 ng/g
- concentration at 28 d ([1]; read-out: Mean Cf): 6.94 ng/g
- concentration at 35 d [1, 3]: 8.35 ng/g
- concentration at 35 d ([1]; read-out: Mean Cf): 7.59 ng/g
- concentration at 40 d [1, 3]: 3.02 ng/g
- concentration at 40 d ([1]; read-out: Mean Cf): 2.4 ng/g
- concentration at 44 d [1, 3]: 0.819 ng/g
- concentration at 44 d ([1]; read-out: Mean Cf): 0.757 ng/g
- Cf,SS concentration in fish at steady-state (common carp): 8.24 µg/kg
- kT depuration rate constant (common carp): 0.255 day⁻¹
- kTG growth corrected depuration rate constant (common carp): 0.244 day⁻¹
- BCFSSL lipid-normalized steady-state bioconcentration factor (common carp; 5% lipid content): 621 L/kg
- Cf data, concentration measured in individual fish (common carp; day 7 (uptake)): 11.7 µg/kg and 10.7 µg/kg and 13.8 µg/kg
- Cf data, concentration measured in individual fish (common carp; day 14 (uptake)): 9.30 µg/kg and 10.0 µg/kg and 8.83 µg/kg
- Cf data, concentration measured in individual fish (common carp; day 21 (uptake)): 9.96 µg/kg and 6.95 µg/kg and 8.16 µg/kg
- Cf data, concentration measured in individual fish (common carp; day 28 (uptake)): 5.90 µg/kg and 7.85 µg/kg and 7.00 µg/kg
- Cf data, concentration measured in individual fish (common carp; day 35 (end of uptake)): 7.32 µg/kg and 7.30 µg/kg and 7.40 µg/kg
- Cf data, concentration measured in individual fish (common carp; day 40 (depuration)): 2.71 µg/kg and 1.73 µg/kg and 2.16 µg/kg
- Cf data, concentration measured in individual fish (common carp; day 44 (depuration)): 0.719 µg/kg and 0.956 µg/kg and 0.535 µg/kg
- concentration at 7 d [2, 3]: 25.9 ng/g
- concentration at 7 d ([2]; read-out: Mean Cf): 23 ng/g
- concentration at 14 d [2, 3]: 27.1 ng/g
- concentration at 14 d ([2]; read-out: Mean Cf): 21.1 ng/g
- concentration at 21 d [2, 3]: 28 ng/g
- concentration at 21 d ([2]; read-out: Mean Cf): 21.5 ng/g
- concentration at 28 d [2, 3]: 53.2 ng/g
- concentration at 28 d ([2]; read-out: Mean Cf): 41.9 ng/g
- concentration at 35 d ([2]; day 35 (end of uptake), read-out: Mean Cf): 46.4 ng/g
- concentration at 40 d [2, 3]: 9.62 ng/g
- concentration at 40 d ([2]; read-out: Mean Cf): 13.8 ng/g
- concentration at 44 d ([2]; day 44 (depuration), read-out: Mean Cf): 6.06 ng/g
- concentration at 56 d ([2]; day 56 (depuration), outlier excluded, read-out: Mean Cf): 1.75 ng/g
- concentration at 70 d ([2]; day 70 (end of depuration), read-out: Mean Cf): 1.01 ng/g
- BCFSS (rainbow trout; Rainbow trout - high BCFSS): 3854 L/kg
- Cf,SS concentration in fish at steady-state (rainbow trout; Rainbow trout - high BCFSS): 44.1 µg/kg
- kTG growth corrected depuration rate constant (rainbow trout; Rainbow trout - high BCFSS): 0.201 day⁻¹
- kT depuration rate constant (rainbow trout; Rainbow trout - high BCFSS (kT-high, day 56-70 values excluded)): 0.227 day⁻¹
- BCFSSL lipid-normalized steady-state bioconcentration factor (rainbow trout; Rainbow trout - high BCFSS): 2122 L/kg
- Cf,SS concentration in fish at steady-state (rainbow trout; rainbow trout): 30.76 µg/kg
- kT depuration rate constant (rainbow trout; rainbow trout): 0.150 day⁻¹
- kTG growth corrected depuration rate constant (rainbow trout; rainbow trout): 0.124 day⁻¹
- BCFSSL lipid-normalized steady-state bioconcentration factor (rainbow trout; rainbow trout): 1479 L/kg
- Cf data, concentration measured in individual fish (rainbow trout; rainbow trout, day 7 (uptake), BaP background corrected): 30.0 µg/kg and 18.7 µg/kg and 17.4 µg/kg
- Cf data, concentration measured in individual fish (rainbow trout; rainbow trout, day 14 (uptake), BaP background corrected): 18.1 µg/kg and 25.4 µg/kg and 13.7 µg/kg
- Cf data, concentration measured in individual fish (rainbow trout; rainbow trout, day 21 (uptake), BaP background corrected): 23.9 µg/kg and 14.5 µg/kg and 19.4 µg/kg
- Cf data, concentration measured in individual fish (rainbow trout; rainbow trout, day 28 (uptake), BaP background corrected): 50.1 µg/kg and 34.5 µg/kg and 29.6 µg/kg
- Cf data, concentration measured in individual fish (rainbow trout; rainbow trout, day 35 (end of uptake), BaP background corrected): 50.9 µg/kg and 49.5 µg/kg and 23.5 µg/kg and 61.7 µg/kg
- Cf data, concentration measured in individual fish (rainbow trout; rainbow trout, day 40 (depuration), BaP background corrected): 15.9 µg/kg and 15.8 µg/kg
- Cf data, concentration measured in individual fish (rainbow trout; rainbow trout, day 44 (depuration), BaP background corrected): 2.19 µg/kg and 7.53 µg/kg and 8.23 µg/kg and 6.28 µg/kg
- Cf data, concentration measured in individual fish (rainbow trout; rainbow trout, day 56 (depuration), 5.42 identified as outlier and excluded): 5.42 µg/kg and 2.06 µg/kg and 2.23 µg/kg and 0.969 µg/kg
- Cf data, concentration measured in individual fish (rainbow trout; rainbow trout, day 70 (end of depuration)): 2.46 µg/kg and 0.320 µg/kg and 0.237 µg/kg
